Results: patent US6967205B1, “Compounds with antibacterial and antiparasitic properties” (New Pharma Research Sweden AB, priority 1999, dated 2005)
≈ marks a conversion by molar mass, not a printed value.

How the values were obtained:
Experiment in all cases: M.I.C. by broth dilution method (NCCLS 1988), gram-positive bacteria
Assay type in all cases: cell-based
[1] = tested on: Bacillus cereus; details: in vitro broth dilution
Method: (§1) The antibacterial activity of the present compounds was investigated by in vitro evaluation of their M.I.C. (Minimum Inhibitory Concentration) values. The evaluation was conducted in complete accordance with the “Broth dilution method”, as outlined by the U.S. National Committee for Clinical Laboratory Standards “NCCLS 1988”.
(§2) Solutions of the present compounds were prepared by dissolving 0.01 g of a test compound in either 10% KOH (aq) or a 10% KOH/DMF mixture, after which sterile, distilled H2O was added up to a total volume of 10 ml, thereby yielding a test compound concentration of 1 000 μg/ml.
(§3) In this evaluation, the antibacterial activity of the present compounds and enrofloxacin as reference compound was tested against seven strains of gram-positive bacteria, namely Bacillus subtilus (ATCC 6633), Bacillus cereus, Streptococcus faecium, Micrococcus Luteus (ATCC 9341), Staph. aureus (ATCC 29737), Staph. epidermidis (ATCC 12228) and Staphylococcus (ATCC 6538).

[2] = tested on: Staphylococcus (ATCC 6538); details: for MIC: ATCC6538, in vitro broth dilution, read-out: M.I.C. values Staph. (ATCC 6538)
Method: as §1, §2, §3

[3] = tested on: Micrococcus Luteus (ATCC 9341); details: for MIC: ATCC9341, in vitro broth dilution, read-out: M.I.C. values Microc. Luteus
Method: as §1, §2, §3

[4] = tested on: Staph. aureus (ATCC 29737); details: for MIC: Staphylococcus aureus, ATCC29737, in vitro broth dilution
Method: as §1, §2, §3

[5] = tested on: Bacillus subtilus (ATCC 6633); details: for MIC: ATCC6633, in vitro broth dilution
Method: as §1, §2, §3

[6] = tested on: Streptococcus faecium; details: in vitro broth dilution; for MIC: Enterococcus faecium, read-out: M.I.C. values Streptoc. faecium
Method: as §1, §2, §3

[7] = tested on: Staph. epidermidis (ATCC 12228); details: for MIC: Staphylococcus epidermidis, ATCC12228, in vitro broth dilution
Method: as §1, §2, §3

[8] = in vitro broth dilution, unit assumed

| Compound | MIC [1] [µg/mL] | MIC [2] [µg/mL] | MIC [3] [µg/mL] | MIC [4] [µg/mL] | MIC [5] [µg/mL] | MIC [6] [µg/mL] | MIC [7] [µg/mL] | M.I.C. values Bacillus cereus ([1]; unit assumed) [µg/mL] | M.I.C. values Staph. (ATCC 6538) [2, 8] [µg/mL] | M.I.C. values Microc. Luteus [3, 8] [µg/mL] | M.I.C. values Staph. aureus [4, 8] [µg/mL] | M.I.C. values Bacillus subtilus [5, 8] [µg/mL] | M.I.C. values Streptoc. faecium ([6]; unit assumed) [µg/mL] | M.I.C. values Staph. epidermidis [7, 8] [µg/mL] |
| --- | --- | --- | --- | --- | --- | --- | --- | --- | --- | --- | --- | --- | --- | --- |
| O=C(O)c1cn(C2CC2)c2cc(N(CCc3ccncc3)CC3CCCO3)c(F)cc2c1=O (stereo not shown) [JA 145, 1-cyclopropyl-6-fluoro-4-oxo-7-[[2-(4-pyridinyl)ethyl](tetrahydro-2-furanylmethyl)amino]-1,4-dihydro-3-quinolinecarboxylic acid] | 0.12 (≈ 0.266 µM) | 0.12 (≈ 0.266 µM) | 2 (≈ 4.43 µM) | 0.12 (≈ 0.266 µM) | 0.12 (≈ 0.266 µM) | 1 (≈ 2.21 µM) | 0.12 (≈ 0.266 µM) | – | – | – | – | – | – | – |
| O=C(O)c1cn(C2CC2)c2cc(N(Cc3ccco3)C(=O)c3cccs3)c(F)cc2c1=O [JA 124, 1-cyclopropyl-6-fluoro-7[(2-furylmethyl)(2-thienylcarbonyl)amino]-4-oxo-1,4-dihydro-3-quinolinecarboxylic acid] | 0.12 (≈ 0.265 µM) | 0.12 (≈ 0.265 µM) | 2 (≈ 4.42 µM) | 0.12 (≈ 0.265 µM) | 0.12 (≈ 0.265 µM) | 1 (≈ 2.21 µM) | 0.12 (≈ 0.265 µM) | – | – | – | – | – | – | – |
| CCn1cc(C(=O)O)c(=O)c2cc(F)c(N3CCN(S(=O)(=O)c4ccc(OC)cc4)CC3)cc21 [JA 21, 1-ethyl-6-fluoro-7-{4-[(4-methoxyphenyl)sulfonyl]-1-piperazinyl}-4-oxo-1,4-dihydro-3-quinolinecarboxylic acid] | 0.01 (≈ 0.0204 µM) | 0.06 (≈ 0.123 µM) | 2 (≈ 4.09 µM) | 0.25 (≈ 0.511 µM) | 0.25 (≈ 0.511 µM) | 0.5 (≈ 1.02 µM) | 0.06 (≈ 0.123 µM) | – | – | – | – | – | – | – |
| O=C(O)c1cn(C2CC2)c2cc(N(CCc3ccccn3)CC3CCCO3)c(F)cc2c1=O (stereo not shown) [JA 146, 1-cyclopropyl-6-fluoro-4-oxo-7-[[2-(2-pyridinyl)ethyl](tetrahydro-2-furanylmethyl)amino]-1,4-dihydro-3-quinolinecarboxylic acid] | 0.12 (≈ 0.266 µM) | 0.12 (≈ 0.266 µM) | 2 (≈ 4.43 µM) | 0.12 (≈ 0.266 µM) | 0.12 (≈ 0.266 µM) | 1 (≈ 2.21 µM) | 0.12 (≈ 0.266 µM) | – | – | – | – | – | – | – |
| O=C(O)c1cn(C2CC2)c2cc(N(CC3CCCO3)S(=O)(=O)c3ccc4ccccc4c3)c(F)cc2c1=O (stereo not shown) [JA 136, 1-cyclopropyl-6-fluoro-7-[(2-naphthylsulfonyl)(tetrahydro-2-furanylmethyl)amino]-4-oxo-1,4-dihydro-3-quinolinecarboxylic acid] | 0.06 (≈ 0.112 µM) | 0.12 (≈ 0.224 µM) | 2 (≈ 3.73 µM) | 0.12 (≈ 0.224 µM) | 0.12 (≈ 0.224 µM) | 0.5 (≈ 0.932 µM) | 0.12 (≈ 0.224 µM) | – | – | – | – | – | – | – |
| COCC(C)N(C(=O)CC(C)=O)c1cc2c(cc1F)c(=O)c(C(=O)O)cn2C1CC1 (stereo not shown) [JA 148, 7-[acetoacetyl(2-methoxy-1-methylethyl)amino]-1-cyclopropyl-6-fluoro-4-oxo-1,4-dihydro-3-quinolinecarboxylic acid] | 0.06 (≈ 0.143 µM) | 0.12 (≈ 0.287 µM) | 2 (≈ 4.78 µM) | 0.12 (≈ 0.287 µM) | 0.12 (≈ 0.287 µM) | 1 (≈ 2.39 µM) | 0.12 (≈ 0.287 µM) | – | – | – | – | – | – | – |
| O=C(O)c1cn(C2CC2)c2cc(N3CCN(c4cnccn4)CC3)c(F)cc2c1=O [JA 46, 1-cyclopropyl-6-fluoro-4-oxo-7-[4-(2-pyrazinyl)-1-piperazinyl]-1,4-dihydro-3-quinolinecarboxylic acid] | 0.06 (≈ 0.147 µM) | 0.12 (≈ 0.293 µM) | 1 (≈ 2.44 µM) | 0.12 (≈ 0.293 µM) | 0.12 (≈ 0.293 µM) | 0.5 (≈ 1.22 µM) | 0.12 (≈ 0.293 µM) | – | – | – | – | – | – | – |
| O=C(O)c1cn(C2CC2)c2cc(NC3CCC(C(=O)O)CC3)c(F)cc2c1=O (stereo not shown) [JA 69, 7-[(4-carboxycyclohexyl)amino]-1-cyclopropyl-6-fluoro-4-oxo-1,4-dihydro-3-quinolinecarboxylic acid] | 0.06 (≈ 0.154 µM) | 0.12 (≈ 0.309 µM) | 2 (≈ 5.15 µM) | 0.12 (≈ 0.309 µM) | 0.12 (≈ 0.309 µM) | 2 (≈ 5.15 µM) | 0.12 (≈ 0.309 µM) | – | – | – | – | – | – | – |
| O=C(O)c1cn(C2CC2)c2cc(N3CCN(c4cccc(Cl)c4S)CC3)c(F)cc2c1=O [JA 41, 7-[4-(3-chloro-2-sulfanylphenyl)-1-piperazinyl]-1-cyclopropyl-6-fluoro-4-oxo-1,4-dihydro-3-quinolinecarboxylic acid] | 0.25 (≈ 0.527 µM) | 0.25 (≈ 0.527 µM) | 2 (≈ 4.22 µM) | 0.25 (≈ 0.527 µM) | 0.5 (≈ 1.05 µM) | 1 (≈ 2.11 µM) | 0.25 (≈ 0.527 µM) | – | – | – | – | – | – | – |
| O=C(O)c1cn(C2CC2)c2cc(N(CC3CCCO3)c3cncc(Cl)n3)c(F)cc2c1=O (stereo not shown) [JA 141, 7-[(6-chloro-2-pyrazinyl)(tetrahydro-2-furanylmethyl)amino]-1-cyclopropyl-6-fluoro-4-oxo-1,4-dihydro-3-quinolinecarboxylic acid] | 0.12 (≈ 0.262 µM) | 0.12 (≈ 0.262 µM) | 2 (≈ 4.36 µM) | 0.25 (≈ 0.545 µM) | 0.12 (≈ 0.262 µM) | 1 (≈ 2.18 µM) | 0.12 (≈ 0.262 µM) | – | – | – | – | – | – | – |
| O=C(O)c1cn(C2CC2)c2cc(N3CCN(S(=O)(=O)Cc4ccccc4)CC3)c(F)cc2c1=O [JA 9, 7-[4-(benzylsulfonyl)-1-piperazinyl]-1-cyclopropyl-6-fluoro-4-oxo-1,4-dihydro-3-quinolinecarboxylic acid] | 0.25 (≈ 0.515 µM) | 0.06 (≈ 0.124 µM) | 1 (≈ 2.06 µM) | ≥ 0.12 | 0.25 (≈ 0.515 µM) | 1 (≈ 2.06 µM) | 0.12 (≈ 0.247 µM) | – | – | – | – | – | – | – |
| CS(=O)(=O)N1CCN(c2cc3c(cc2F)c(=O)c(C(=O)O)cn3C2CC2)CC1 [JA 10, 1-cyclopropyl-6-fluoro-7-[4-(methylsulfonyl)-1-piperazinyl]-4-oxo-1,4-dihydro-3-quinolinecarboxylic acid] | 0.12 (≈ 0.293 µM) | 0.25 (≈ 0.611 µM) | 2 (≈ 4.88 µM) | 0.25 (≈ 0.611 µM) | 0.5 (≈ 1.22 µM) | 1 (≈ 2.44 µM) | 0.25 (≈ 0.611 µM) | – | – | – | – | – | – | – |
| CC(=O)CC(=O)N(CC1CCCO1)c1cc2c(cc1F)c(=O)c(C(=O)O)cn2C1CC1 (stereo not shown) [JA 144] | – | – | – | – | – | – | – | 0.12 | 0.06 | 1 | 0.12 | 0.12 | 0.5 | 0.12 |
| O=C(O)c1cn(C2CC2)c2cc(N(CC3CCCO3)c3cccc(Cl)n3)c(F)cc2c1=O (stereo not shown) [JA 143, 7-[(6-chloro-2-pyridinyl)(tetrahydro-2-furanylmethyl)amino]-1-cyclopropyl-6-fluoro-4-oxo-1,4-dihydro-3-quinolinecarboxylic acid] | 0.12 (≈ 0.262 µM) | 0.12 (≈ 0.262 µM) | > 2 | 0.25 (≈ 0.546 µM) | 0.12 (≈ 0.262 µM) | 1 (≈ 2.18 µM) | 0.12 (≈ 0.262 µM) | – | – | – | – | – | – | – |
| O=C(O)c1cn(C2CC2)c2cc(NCCN3CCCCC3)c(F)cc2c1=O [JA 76, 1-cyclopropyl-6-fluoro-4-oxo-7-{[2-(1-piperidinyl)ethyl]-amino}-1,4-dihydro-3-quinolinecarboxylic acid] | 0.12 (≈ 0.321 µM) | 0.06 (≈ 0.161 µM) | 2 (≈ 5.36 µM) | 0.12 (≈ 0.321 µM) | 0.12 (≈ 0.321 µM) | 1 (≈ 2.68 µM) | 0.12 (≈ 0.321 µM) | – | – | – | – | – | – | – |
| O=C(O)c1cn(C2CC2)c2cc(N(CC3CCCO3)S(=O)(=O)CCc3ccccc3)c(F)cc2c1=O (stereo not shown) [JA 137, 1-cyclopropyl-6-fluoro-4-oxo-7-[(phenethylsulfonyl)(tetrahydro-2-furanylmethyl)amino]-1,4-dihydro-3-quinolinecarboxylic acid] | 0.25 (≈ 0.486 µM) | 0.12 (≈ 0.233 µM) | 2 (≈ 3.89 µM) | 0.5 (≈ 0.972 µM) | 0.12 (≈ 0.233 µM) | 1 (≈ 1.94 µM) | 0.25 (≈ 0.486 µM) | – | – | – | – | – | – | – |
